Results on 10 molecules are retold here after US9549965B2, “Pharmaceutical composition for treating a microbial infection” (HELPERBY THERAPEUTICS LIMITED, priority 2010, dated 2017).

Values joined by “and” are separate entries in the source; they are usually repeats but may differ in a detail not shown here. Equal entries are not always repeated. Structures can show the parent of a compound that is named as a salt.

The test system of one experiment is stationary phase E. coli. Briefly: Bactericidal activity against stationary phase E. coli (CFU counts). Type of experiment: cell-based, Escherichia coli. As to conditions: for log reduction at 6.25 µg/mL / log reduction at 12.5 µg/mL / log reduction at 25 µg/mL: Escherichia coli, read-out: Log kill. On the procedure: (§1) Escherichia coli K12; Gram negative; Reference strain.
(§2) Bacteria were grown in 10 ml of nutrient broth (No. 2 (Oxoid)) overnight at 37° C., with continuous shaking at 120 rpm. The overnight cultures were diluted (1000×) in 100 ml of growth medium and then incubated without shaking for 10 days. Viability of the bacteria was estimated by colony forming unit (CFU) counts at 2 hour intervals at the first 24 hours and at 12-24 hours afterwards. From serial 10-fold dilutions of the experimental cultures, 100 μl samples were added to triplicate plates of nutrient agar plates (Oxoid) and blood agar plates (Oxoid). Colony forming units (CFU) were counted after incubation of the plates at 37° C. for 24 hours.
(§3) Cultures incubated for more than 24 hours are in the stationary phase. For drug screening, 5-6 day old stationary phase cultures were used.
(§4) Different concentrations of each test compound were incubated with stationary phase cultures (5-6 day cultures) in 96 well plates for 24 or 48 hours. Bactericidal activity was then determined by taking CFU counts of the resulting cultures, as described above.

Experiment [1] has as its system log phase E. coli. Briefly: MIC against log phase E. coli. Type of experiment: cell-based, Escherichia coli. On the procedure:
as §1
(§5) The above-described overnight cultures were diluted (1000×) with iso-sensitest broth. The cultures were then incubated at 37° C. with shaking for 1-2 hours to reach log CFU 6, which served as log phase cultures.
(§6) The bactericidal activity of the drugs against log phase cultures were determined by minimal inhibitory concentration (MIC) of the drugs, which is defined as the lowest concentration which inhibits visible growth. Different concentrations of each test compound were incubated with the log-phase cultures in 96 well plates for 24 hours. Bactericidal activity was then examined by taking a spectrophotometer reading (using a plate reader) at 405 nm.

In experiment [2] the test system is log phase E. coli. Description: Chequerboard analysis with polymyxin E against log phase E. coli. It is filed as cell-based, Escherichia coli. As to conditions: for MIC: Escherichia coli. Here is the method: as §1, §5, §6
Experiment [3] deals with stationary phase S. aureus. Briefly: Bactericidal activity against stationary phase S. aureus (CFU counts). Type of experiment: cell-based, Staphylococcus aureus. The settings on record: Staphylococcus aureus, read-out: Log Kill; for log reduction at 6.25 µg/mL: 6.25 μg/ml; for log reduction at 12.5 µg/mL: 12.5 μg/ml; for log reduction at 25 µg/mL: 25 μg/ml. On the procedure:
Staphylococcus aureus (Oxford strain); Gram positive; Reference strain.
as §2, §3, §4

The test system of experiment [4] is NDM-1 Klebsiella pneumoniae. Briefly: Chequerboard analysis with colistin against NDM-1 Klebsiella pneumoniae. Type of experiment: cell-based.
[5] abbreviates: Escherichia coli, read-out: MIC.

`CCCCCCc1ccc(O)cc1O.Nc1c2ccccc2nc2ccccc12` [Acrisorcin]: the Log Kill in the experiment with stationary phase E. coli (6.25 μg/ml), in the experiment with stationary phase E. coli (12.50 μg/ml) and in the experiment on stationary phase E. coli (25.00 μg/ml) was 6.14 each time. Further, the MIC (commonly the lowest concentration that inhibits growth of the organism) against log phase E. coli [1] is on record as “— (— signifies MIC higher than 50 μg/ml)”.
Regarding `COc1cccc2c1C(=O)c1c(O)c3c(c(O)c1C2=O)C[C@@](O)(C(=O)CO)C[C@@H]3O[C@H]1C[C@H](N)[C@H](O)[C@H](C)O1` [Doxorubicin], the log reduction at 6.25 µg/mL in the experiment with stationary phase E. coli (6.25 μg/ml) stood at 6.14. Moreover, the log reduction at 12.5 µg/mL in the experiment on stationary phase E. coli (12.50 μg/ml) amounted to 6.14. Besides, in the experiment on stationary phase E. coli (25.00 μg/ml), the log reduction at 25 µg/mL came out at 6.14. In addition, the MIC in the experiment on log phase E. coli [1] (setting [5]) was greater than 50 µg/mL.
Consider `CC(COc1ccccc1)N(CCCl)Cc1ccccc1` (centres unmarked) [HT00800157, Phenoxybenzamine Hydrochloride], for which the figures for the MIC with log phase E. coli [2] (alone), in the experiment on log phase E. coli [2] (in combination with polymyxin E at 0.06 μg/ml) and with log phase E. coli [2] (in combination with polymyxin E at 0.25 μg/ml) were greater than 64 µg/mL, 64 µg/mL and 1 µg/mL, respectively. Further, the spectrophotometer reading was 1.52 in the experiment on log phase E. coli [2] (HT00800157 1 μg/ml alone); 1.53 in the experiment with log phase E. coli [2] (HT00800157 2 μg/ml alone); 1.60 with log phase E. coli [2] (HT00800157 4 μg/ml alone); 1.56 with log phase E. coli [2] (HT00800157 8 μg/ml alone); 1.56 in the experiment on log phase E. coli [2] (HT00800157 16 μg/ml alone); 1.57 in the experiment on log phase E. coli [2] (HT00800157 32 μg/ml alone). In the experiment on log phase E. coli [2] (HT00800157 64 μg/ml alone), this molecule displayed a spectrophotometer reading of 1.60.
As for `Oc1ccc(O)cc1` [Hydroquinone], the log reduction at 6.25 µg/mL in experiment [3] turned out to be 6.15; with stationary phase E. coli (6.25 μg/ml) it was 6.14. The log reduction at 12.5 µg/mL in experiment [3] was 6.15; in the experiment with stationary phase E. coli (12.50 μg/ml), 6.14. Further, the log reduction at 25 µg/mL in experiment [3] amounted to 6.15; in the experiment on stationary phase E. coli (25.00 μg/ml), 6.14. In the experiment on log phase E. coli [1] (setting [5]), the MIC is greater than 50 µg/mL.
Regarding `COC(=O)C1=C(C)NC(C)=C(C(=O)OCC(C)C)C1c1ccccc1[N+](=O)[O-]` (centres unmarked) [Nisoldipine], in experiment [3], the log reduction at 6.25 µg/mL worked out at 0, the log reduction at 12.5 µg/mL was 6.15 and the log reduction at 25 µg/mL is 6.15. In addition, the MIC in the experiment on log phase E. coli [1] (setting [5]) was greater than 50 µg/mL.
Regarding `CCN(CC)CCCC(C)Nc1c2ccc(Cl)cc2nc2ccc(OC)cc12` (centres unmarked) [Quinacrine hydrochloride], the log reduction at 6.25 µg/mL in the experiment on stationary phase E. coli (6.25 μg/ml) was found to be 1.27. Moreover, the log reduction at 12.5 µg/mL in the experiment with stationary phase E. coli (12.50 μg/ml) is 2.14. Further, in the experiment with stationary phase E. coli (25.00 μg/ml), the log reduction at 25 µg/mL turned out to be 6.14. The MIC in the experiment with log phase E. coli [1] (setting [5]) is greater than 50 µg/mL.
On to `Clc1ccc(C(Cn2ccnc2)OCc2ccsc2Cl)c(Cl)c1` (centres unmarked) [Tioconazole], for which, in experiment [3], the log reduction at 6.25 µg/mL was found to be 0, the log reduction at 12.5 µg/mL worked out at 6.15 and the log reduction at 25 µg/mL is 6.15.
For the molecule `CN(C)CCOc1ccc(/C(=C(/CCCl)c2ccccc2)c2ccccc2)cc1` [Toremifene citrate], in experiment [3], the log reduction at 6.25 µg/mL amounted to 6.15, the log reduction at 12.5 µg/mL was 6.15 and the log reduction at 25 µg/mL was found to be 6.15.
On to `CN1CCN(CCCN2c3ccccc3Sc3ccc(C(F)(F)F)cc32)CC1` [Trifluoperazine hydrochloride], for which the values for the log reduction at 6.25 µg/mL (in experiment [3]; in the experiment with stationary phase E. coli (6.25 μg/ml)) were 0 and -0.12, respectively. Moreover, the results for the log reduction at 12.5 µg/mL (in experiment [3]; in the experiment on stationary phase E. coli (12.50 μg/ml)) were 2.22 and 6.14, respectively. The results for the log reduction at 25 µg/mL (in experiment [3]; in the experiment with stationary phase E. coli (25.00 μg/ml)) were 6.03 and 6.14, respectively. Further, the MIC in the experiment with log phase E. coli [1] (setting [5]) came to 20 µg/mL. For the same molecule, the spectrophotometer reading in experiment [4] (trifluoperazine hydrochloride 0.25 mg/L alone) was found to be 0.96; in experiment [4] (trifluoperazine hydrochloride 0.5 mg/L alone) it was 0.95; in experiment [4] (trifluoperazine hydrochloride 1 mg/L alone), 0.94; in experiment [4] (trifluoperazine hydrochloride 2 mg/L alone) it was 0.96; in experiment [4] (trifluoperazine hydrochloride 4 mg/L alone), 0.95; in experiment [4] (trifluoperazine hydrochloride 8 mg/L alone), 0.97. Also, the spectrophotometer reading in experiment [4] (trifluoperazine hydrochloride 16 mg/L alone) came out at 0.98; in experiment [4] (trifluoperazine hydrochloride 32 mg/L alone), 0.95; in experiment [4] (trifluoperazine hydrochloride 64 mg/L alone) it was 0.77; in experiment [4] (trifluoperazine hydrochloride 128 mg/L alone), 0.87; in experiment [4] (trifluoperazine hydrochloride 256 mg/L alone), 1.33.
Regarding Polymyxin E (Colistin), the spectrophotometer reading with log phase E. coli [2] (polymyxin E 0.0019 μg/ml alone) was 1.53; in the experiment on log phase E. coli [2] (polymyxin E 0.0039 μg/ml alone), 1.55; in the experiment on log phase E. coli [2] (polymyxin E 0.0078 μg/ml alone), 1.55; with log phase E. coli [2] (polymyxin E 0.015625 μg/ml alone) it was 1.53; in the experiment with log phase E. coli [2] (polymyxin E 0.03125 μg/ml alone) it was 1.42; in the experiment on log phase E. coli [2] (polymyxin E 0.0625 μg/ml alone), 1.52. Moreover, the spectrophotometer reading worked out at 1.48 in the experiment on log phase E. coli [2] (polymyxin E 0.125 μg/ml alone); 1.25 with log phase E. coli [2] (polymyxin E 0.25 μg/ml alone); 0.49 in the experiment with log phase E. coli [2] (polymyxin E 0.5 μg/ml alone); 0.49 in the experiment on log phase E. coli [2] (polymyxin E 1 μg/ml alone); 0.50 in the experiment on log phase E. coli [2] (polymyxin E 2 μg/ml alone); 1.08 in experiment [4] (colistin 0.5 mg/L alone, Table 6). Also, the spectrophotometer reading in experiment [4] (colistin 0.5 mg/L alone, Table 7) is 0.98; in experiment [4] (colistin 0.5 mg/L alone, Table 8), 0.94; in experiment [4] (colistin 0.5 mg/L alone, Table 9), 1.12; in experiment [4] (colistin 0.5 mg/L alone, Table 10) it was 1.14; in experiment [4] (colistin 0.5 mg/L alone, Table 11), 0.96; in experiment [4] (colistin 1 mg/L alone, Table 6), 1.03. In addition, the spectrophotometer reading worked out at 1.02 in experiment [4] (colistin 1 mg/L alone, Table 7); 0.94 in experiment [4] (colistin 1 mg/L alone, Table 8); 1.13 in experiment [4] (colistin 1 mg/L alone, Table 9); 1.12 in experiment [4] (colistin 1 mg/L alone, Table 10); 0.93 in experiment [4] (colistin 1 mg/L alone, Table 11); 1.05 in experiment [4] (colistin 2 mg/L alone, Table 6). The spectrophotometer reading in experiment [4] (colistin 2 mg/L alone, Table 7) was determined as 0.95; in experiment [4] (colistin 2 mg/L alone, Table 8), 0.87; in experiment [4] (colistin 2 mg/L alone, Table 9) it was 1.07; in experiment [4] (colistin 2 mg/L alone, Table 10), 1.09; in experiment [4] (colistin 2 mg/L alone, Table 11), 0.91; in experiment [4] (colistin 4 mg/L alone, Table 6), 0.34. The spectrophotometer reading in experiment [4] (colistin 4 mg/L alone, Table 7) worked out at 0.87; in experiment [4] (colistin 4 mg/L alone, Table 8) it was 0.54; in experiment [4] (colistin 4 mg/L alone, Table 9), 0.80; in experiment [4] (colistin 4 mg/L alone, Table 10), 0.89; in experiment [4] (colistin 4 mg/L alone, Table 11), 0.90; in experiment [4] (colistin 8 mg/L alone, Table 6), 0.82. The spectrophotometer reading in experiment [4] (colistin 8 mg/L alone, Table 7) came to 0.44; in experiment [4] (colistin 8 mg/L alone, Table 8), 0.57; in experiment [4] (colistin 8 mg/L alone, Table 9) it was 0.68; in experiment [4] (colistin 8 mg/L alone, Table 10), 0.63; in experiment [4] (colistin 8 mg/L alone, Table 11), 0.53; in experiment [4] (colistin 16 mg/L alone, Table 6), 0.78. For the same molecule, the spectrophotometer reading was determined as 0.53 in experiment [4] (colistin 16 mg/L alone, Table 7); 0.39 in experiment [4] (colistin 16 mg/L alone, Table 8); 0.40 in experiment [4] (colistin 16 mg/L alone, Table 9); 0.69 in experiment [4] (colistin 16 mg/L alone, Table 10); 0.48 in experiment [4] (colistin 16 mg/L alone, Table 11); 0.33 in experiment [4] (colistin 32 mg/L alone, Table 6). In addition, the spectrophotometer reading in experiment [4] (colistin 32 mg/L alone, Table 7) amounted to 0.36; in experiment [4] (colistin 32 mg/L alone, Table 8), 0.41; in experiment [4] (colistin 32 mg/L alone, Table 9), 0.39; in experiment [4] (colistin 32 mg/L alone, Table 10), 0.40; in experiment [4] (colistin 32 mg/L alone, Table 11), 0.41. Also, the “Colistin MIC” value is 32 µg/mL and 16 µg/mL in experiment [4] (colistin alone); 1 µg/mL in experiment [4] (combined with 32 mg/L of suloctidil); 0.5 µg/mL in experiment [4] (combined with 64 mg/L of mefloquine).
